Measured values published in patent US20210255193A1, “LYSINE REACTIVE PROBES AND USES THEREOF” (The Scripps Research Institute, priority 2017, published 2021).
Blank lines part the entries; values can stand above or below the compound they belong to.

How the values were obtained:
Assay in all cases: competitive isoTOP-ABPP
Assay type in all cases: binding
[1] = biological target: T1, MAP2K3 Dual specificity mitogen-activated protein kinase (Homo sapiens, UniProt P46734); details: for isoTOP-ABPP ratio (R) at liganded lysine P46734_K93 / isoTOP-ABPP reactivity ratio at lysine P46734_K93 / R value (DMSO/fragment) for probe 1 labeling: 50 uM, in vitro; for isoTOP-ABPP ratio (R) at liganded lysine P46734_K93: sol, 231; for isoTOP-ABPP reactivity ratio at lysine P46734_K93 / R value (DMSO/fragment) for probe 1 labeling: 231 sol; for R value (DMSO/fragment) for probe 1 labeling: P46734_K93
T1 construct: isoTOP-ABPP experiments performed in cell lysates (in vitro); endogenous in cells; host or cells: soluble proteome of human cancer cell lines (MDA-MB-231; Ramos and Jurkat also prepared)
T1 sequence (P46734 1-347): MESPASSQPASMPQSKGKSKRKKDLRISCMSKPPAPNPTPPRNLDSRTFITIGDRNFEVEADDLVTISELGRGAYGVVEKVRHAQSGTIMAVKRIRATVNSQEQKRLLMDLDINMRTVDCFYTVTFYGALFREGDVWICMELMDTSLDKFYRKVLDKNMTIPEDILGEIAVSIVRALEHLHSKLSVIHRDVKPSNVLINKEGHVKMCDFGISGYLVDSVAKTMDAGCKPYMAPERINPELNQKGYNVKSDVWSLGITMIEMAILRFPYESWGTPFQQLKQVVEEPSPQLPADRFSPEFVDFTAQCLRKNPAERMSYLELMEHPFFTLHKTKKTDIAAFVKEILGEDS
Method in brief: (§1)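 Here, isoTOP-ABPP measures loss of STP-alkyne labeling at individual lysines after fragment exposure in lysate. Activated esters are dosed at 50 μM, guanidinylating agents at 100 μM; the probe follows at 0.1 mM for 1 h. R ≥4 marks a liganded lysine.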

[2] = biological target: T2, POLR2L DNA-directed RNA polymerases I, II, and III subunit (Homo sapiens, UniProt P62875); details: for isoTOP-ABPP ratio (R) at liganded lysine P62875_K67 / isoTOP-ABPP reactivity ratio at lysine P62875_K67 / R value (DMSO/fragment) for probe 1 labeling: 50 uM, in vitro; for isoTOP-ABPP ratio (R) at liganded lysine P62875_K67: sol, 231; for isoTOP-ABPP reactivity ratio at lysine P62875_K67 / R value (DMSO/fragment) for probe 1 labeling: 231 sol; for R value (DMSO/fragment) for probe 1 labeling: P62875_K67
T2 construct: isoTOP-ABPP experiments performed in cell lysates (in vitro); endogenous in cells; host or cells: soluble proteome of human cancer cell lines (MDA-MB-231, Ramos, Jurkat)
Method in brief: as §1

[3] = biological target: T3, PNPO Pyridoxine-5-phosphate oxidase (Homo sapiens, UniProt Q9NVS9); details: for isoTOP-ABPP ratio (R) at liganded lysine Q9NVS9_K100 / isoTOP-ABPP reactivity ratio at lysine Q9NVS9_K100 / R value (DMSO/fragment) for probe 1 labeling: 50 uM, in vitro; for isoTOP-ABPP ratio (R) at liganded lysine Q9NVS9_K100: sol, 231; for isoTOP-ABPP reactivity ratio at lysine Q9NVS9_K100 / R value (DMSO/fragment) for probe 1 labeling: 231 sol; for R value (DMSO/fragment) for probe 1 labeling: Q9NVS9_K100
T3 construct: endogenous in cells; host or cells: MDA-MB-231 (soluble fraction of lysate)
T3 sequence (Q9NVS9 1-261): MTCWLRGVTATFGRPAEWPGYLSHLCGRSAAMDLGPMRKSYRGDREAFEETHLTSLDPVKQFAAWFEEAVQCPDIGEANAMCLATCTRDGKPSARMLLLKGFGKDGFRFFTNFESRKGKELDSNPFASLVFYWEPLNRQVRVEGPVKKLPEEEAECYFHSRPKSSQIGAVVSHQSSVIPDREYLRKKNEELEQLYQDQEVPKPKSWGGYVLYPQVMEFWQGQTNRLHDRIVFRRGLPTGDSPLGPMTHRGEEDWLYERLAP
Method in brief: as §1

[4] = biological target: T4, ENOPH1 Enolase-phosphatase E1 (Homo sapiens, UniProt Q9UHY7); details: for isoTOP-ABPP ratio (R) at liganded lysine Q9UHY7_K111 / isoTOP-ABPP reactivity ratio at lysine Q9UHY7_K111 / R value (DMSO/fragment) for probe 1 labeling: 50 uM, in vitro; for isoTOP-ABPP ratio (R) at liganded lysine Q9UHY7_K111: sol, 231; for isoTOP-ABPP reactivity ratio at lysine Q9UHY7_K111 / R value (DMSO/fragment) for probe 1 labeling: 231 sol; for R value (DMSO/fragment) for probe 1 labeling: Q9UHY7_K111
T4 construct: endogenous in cells; host or cells: MDA-MB-231 (soluble fraction of lysate)
T4 sequence (Q9UHY7 whole entry, the tested form may be a part): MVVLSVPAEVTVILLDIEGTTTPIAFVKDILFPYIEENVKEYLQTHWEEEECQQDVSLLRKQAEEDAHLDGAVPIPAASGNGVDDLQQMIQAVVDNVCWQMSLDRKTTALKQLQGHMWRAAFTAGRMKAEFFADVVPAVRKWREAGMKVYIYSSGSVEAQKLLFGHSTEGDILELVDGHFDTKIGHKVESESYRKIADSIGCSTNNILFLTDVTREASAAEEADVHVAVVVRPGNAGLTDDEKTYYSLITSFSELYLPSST
Method in brief: as §1

[5] = biological target: T5, G6PD Glucose-6-phosphate 1-dehydrogenase (Homo sapiens, UniProt P11413); details: for isoTOP-ABPP ratio (R) at liganded lysine P11413_K171 / isoTOP-ABPP reactivity ratio at lysine P11413_K171 / R value (DMSO/fragment) for probe 1 labeling: 50 uM, in vitro; for isoTOP-ABPP ratio (R) at liganded lysine P11413_K171: sol, 231; for isoTOP-ABPP reactivity ratio at lysine P11413_K171 / R value (DMSO/fragment) for probe 1 labeling: 231 sol; for R value (DMSO/fragment) for probe 1 labeling: P11413_K171
T5 construct: isoTOP-ABPP experiments performed in cell lysates (in vitro); endogenous in cells; host or cells: MDA-MB-231 soluble lysate
T5 sequence (P11413 whole entry, the tested form may be a part): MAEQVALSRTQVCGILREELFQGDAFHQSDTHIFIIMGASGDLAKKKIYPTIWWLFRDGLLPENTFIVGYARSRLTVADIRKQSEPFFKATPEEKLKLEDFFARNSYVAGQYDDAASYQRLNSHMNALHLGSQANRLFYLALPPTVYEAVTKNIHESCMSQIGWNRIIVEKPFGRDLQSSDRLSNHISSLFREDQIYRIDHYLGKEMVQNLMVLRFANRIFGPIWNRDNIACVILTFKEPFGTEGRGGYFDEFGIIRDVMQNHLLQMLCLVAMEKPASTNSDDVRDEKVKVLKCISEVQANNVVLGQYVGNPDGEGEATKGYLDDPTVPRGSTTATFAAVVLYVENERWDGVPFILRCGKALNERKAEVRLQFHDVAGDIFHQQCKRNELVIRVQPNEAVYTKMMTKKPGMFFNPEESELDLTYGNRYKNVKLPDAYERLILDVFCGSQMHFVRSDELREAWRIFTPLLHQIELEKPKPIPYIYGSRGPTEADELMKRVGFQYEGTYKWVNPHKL
Method in brief: as §1

SMILES: O=C(ON1C(=O)CCC1=O)c1cc(C(F)(F)F)cc(C(F)(F)F)c1 [fragment 46, 3,5-Bis(trifluoromethyl)benzoic acid NHS ester]
- isoTOP-ABPP ratio, lysine P46734_K93 ([1]; 50 uM_231_sol_in vitro): 1.3
- isoTOP-ABPP ratio, lysine P62875_K67 ([2]; 50 uM_231_sol_in vitro): 1.0
- isoTOP-ABPP ratio, lysine Q9NVS9_K100 ([3]; 50 uM_231_sol_in vitro): 1.0
- isoTOP-ABPP ratio, lysine Q9UHY7_K111 ([4]; 50 uM_231_sol_in vitro): 1.1
- isoTOP-ABPP ratio, lysine P11413_K171 ([5]; 50 uM_231_sol_in vitro): 0.9

SMILES: O=C(Oc1ccc([N+](=O)[O-])cc1[N+](=O)[O-])c1ccc(Oc2ccccc2)cc1 [fragment 39, 2,4-Dinitrophenyl 4-phenoxybenzoate]
- isoTOP-ABPP ratio (R) at liganded lysine P46734_K93 [1]: 0.8
- isoTOP-ABPP ratio (R) at liganded lysine P62875_K67 [2]: 0.9
- isoTOP-ABPP ratio (R) at liganded lysine Q9NVS9_K100 [3]: 0.9
- isoTOP-ABPP ratio (R) at liganded lysine Q9UHY7_K111 [4]: 0.8
- isoTOP-ABPP ratio (R) at liganded lysine P11413_K171 [5]: 1.1

SMILES: O=C(Oc1ccc([N+](=O)[O-])cc1[N+](=O)[O-])C(c1ccccc1)c1ccccc1 [fragment 30, 2,4-Dinitrophenyl 2,2-diphenylacetate]
- isoTOP-ABPP reactivity ratio at lysine P46734_K93 [1]: 1.4
- isoTOP-ABPP reactivity ratio at lysine P62875_K67 [2]: 1.8
- isoTOP-ABPP reactivity ratio at lysine Q9NVS9_K100 [3]: 1.0
- isoTOP-ABPP reactivity ratio at lysine Q9UHY7_K111 [4]: 0.8
- isoTOP-ABPP reactivity ratio at lysine P11413_K171 [5]: 3.9

SMILES: O=C(Oc1c(F)c(F)c(F)c(F)c1F)c1cc(C(F)(F)F)cc(C(F)(F)F)c1 [fragment 21, Pentafluorophenyl 3,5-bis(trifluoromethyl)benzoate]
- R value (DMSO/fragment) for probe 1 labeling [1]: 0.9
- R value (DMSO/fragment) for probe 1 labeling [2]: 0.8
- R value (DMSO/fragment) for probe 1 labeling [3]: 0.9
- R value (DMSO/fragment) for probe 1 labeling [4]: 1.0
- R value (DMSO/fragment) for probe 1 labeling [5]: 0.8

SMILES: N#Cc1ccc(C(=O)Oc2ccc([N+](=O)[O-])cc2[N+](=O)[O-])cc1 [fragment 44, 2,4-Dinitrophenyl 4-cyanobenzoate]
- isoTOP-ABPP ratio, lysine P46734_K93 ([1]; 50 uM_231_sol_in vitro): 0.8
- isoTOP-ABPP ratio, lysine P62875_K67 ([2]; 50 uM_231_sol_in vitro): 1.0
- isoTOP-ABPP ratio, lysine Q9NVS9_K100 ([3]; 50 uM_231_sol_in vitro): 0.9
- isoTOP-ABPP ratio, lysine Q9UHY7_K111 ([4]; 50 uM_231_sol_in vitro): 0.9
- isoTOP-ABPP ratio, lysine P11413_K171 ([5]; 50 uM_231_sol_in vitro): 1.3

SMILES: O=C(Oc1ccc([N+](=O)[O-])cc1[N+](=O)[O-])C1CCN(C(=O)OCc2ccccc2)CC1 [fragment 34, 1-Benzyl 4-(2,4-dinitrophenyl) piperidine-1,4-dicarboxylate]
- isoTOP-ABPP ratio (R) at liganded lysine P46734_K93 [1]: 0.8
- isoTOP-ABPP ratio (R) at liganded lysine P62875_K67 [2]: 1.0
- isoTOP-ABPP ratio (R) at liganded lysine Q9NVS9_K100 [3]: 0.9
- isoTOP-ABPP ratio (R) at liganded lysine Q9UHY7_K111 [4]: 0.9
- isoTOP-ABPP ratio (R) at liganded lysine P11413_K171 [5]: 0.9

SMILES: CC(C)(C)OC(=O)N=C(NC(=O)OC(C)(C)C)n1cccn1 [fragment 50, reference compound]
- isoTOP-ABPP ratio, lysine P46734_K93 ([1]; 100 uM_231_sol_in vitro): 1.8
- isoTOP-ABPP ratio, lysine P62875_K67 ([2]; 100 uM_231_sol_in vitro): 1.0
- isoTOP-ABPP ratio, lysine Q9NVS9_K100 ([3]; 100 uM_231_sol_in vitro): 1.1
- isoTOP-ABPP ratio, lysine Q9UHY7_K111 ([4]; 100 uM_231_sol_in vitro): 15.1
- isoTOP-ABPP ratio, lysine P11413_K171 ([5]; 100 uM_231_sol_in vitro): 1.1

SMILES: O=C(CCc1coc2cc(F)ccc2c1=O)Oc1ccc([N+](=O)[O-])cc1[N+](=O)[O-] [fragment 36, 2,4-Dinitrophenyl 3-(7-fluoro-4-oxo-4H-chromen-3-yl)propanoate]
- isoTOP-ABPP ratio (R) at liganded lysine P46734_K93 [1]: 0.9
- isoTOP-ABPP ratio (R) at liganded lysine P62875_K67 [2]: 4.1
- isoTOP-ABPP ratio (R) at liganded lysine Q9NVS9_K100 [3]: 1.0
- isoTOP-ABPP ratio (R) at liganded lysine Q9UHY7_K111 [4]: 0.9
- isoTOP-ABPP ratio (R) at liganded lysine P11413_K171 [5]: 1.0

SMILES: O=C(Oc1c(F)c(F)c(C(F)(F)F)c(F)c1F)c1cc(C(F)(F)F)cc(C(F)(F)F)c1 [fragment 47, 2,3,5,6-Tetrafluoro-4-(trifluoromethyl)phenyl 3,5-bis(trifluoromethyl)benzoate]
- isoTOP-ABPP ratio, lysine P46734_K93 ([1]; 50 uM_231_sol_in vitro): 1.1
- isoTOP-ABPP ratio, lysine P62875_K67 ([2]; 50 uM_231_sol_in vitro): 1.0
- isoTOP-ABPP ratio, lysine Q9NVS9_K100 ([3]; 50 uM_231_sol_in vitro): 0.9
- isoTOP-ABPP ratio, lysine Q9UHY7_K111 ([4]; 50 uM_231_sol_in vitro): 7.8
- isoTOP-ABPP ratio, lysine P11413_K171 ([5]; 50 uM_231_sol_in vitro): 1.0

Second part, the compound after the results:

- isoTOP-ABPP ratio, lysine P46734_K93 ([1]; 50 uM_231_sol_in vitro): 1.0
- isoTOP-ABPP ratio, lysine P62875_K67 ([2]; 50 uM_231_sol_in vitro): 1.0
- isoTOP-ABPP ratio, lysine Q9NVS9_K100 ([3]; 50 uM_231_sol_in vitro): 0.9
- isoTOP-ABPP ratio, lysine Q9UHY7_K111 ([4]; 50 uM_231_sol_in vitro): 0.9
- isoTOP-ABPP ratio, lysine P11413_K171 ([5]; 50 uM_231_sol_in vitro): 0.9
SMILES: NC(=O)c1cc(C(F)(F)F)cc(C(F)(F)F)c1 [fragment 51, reference compound]

- isoTOP-ABPP reactivity ratio at lysine P46734_K93 [1]: 1.1
- isoTOP-ABPP reactivity ratio at lysine P62875_K67 [2]: 1.1
- isoTOP-ABPP reactivity ratio at lysine Q9NVS9_K100 [3]: 1.4
- isoTOP-ABPP reactivity ratio at lysine Q9UHY7_K111 [4]: 1.3
- isoTOP-ABPP reactivity ratio at lysine P11413_K171 [5]: 1.0
SMILES: O=C(CCc1coc2cc(F)ccc2c1=O)Oc1c(F)c(F)c(F)c(F)c1F [fragment 26, Pentafluorophenyl 3-(7-fluoro-4-oxo-4H-chromen-3-yl)propanoate]

- R value (DMSO/fragment) for probe 1 labeling [1]: 0.9
- R value (DMSO/fragment) for probe 1 labeling [2]: 1.0
- blockade of probe 1 labeling of K100 ([3]; PNPO K100): fully blocking probe 1 labeling
- R value (DMSO/fragment) for probe 1 labeling [3]: 20.0
- R value (DMSO/fragment) for probe 1 labeling [4]: 1.0
- R value (DMSO/fragment) for probe 1 labeling [5]: 0.9
SMILES: O=C(CCc1cn(-c2ccccc2)nc1-c1ccccc1)Oc1c(F)c(F)c(F)c(F)c1F [fragment 19, Pentafluorophenyl 3-(1,3-diphenyl-1H-pyrazol-4-yl)propanoate]

- isoTOP-ABPP ratio, lysine P46734_K93 ([1]; 50 uM_231_sol_in vitro): 1.1
- isoTOP-ABPP ratio, lysine P62875_K67 ([2]; 50 uM_231_sol_in vitro): 0.9
- isoTOP-ABPP ratio, lysine Q9NVS9_K100 ([3]; 50 uM_231_sol_in vitro): 0.9
- isoTOP-ABPP ratio, lysine Q9UHY7_K111 ([4]; 50 uM_231_sol_in vitro): 0.9
- isoTOP-ABPP ratio, lysine P11413_K171 ([5]; 50 uM_231_sol_in vitro): 0.9
SMILES: O=C(Oc1c(F)c(F)cc(F)c1F)c1cc(C(F)(F)F)cc(C(F)(F)F)c1 [fragment 48, 2,3,5,6-Tetrafluorophenyl 3,5-bis(trifluoromethyl)benzoate]
